Measured values as given in the CheMixHub ionic liquid set.

Test: xn = mol fraction of the nth substance listed

O=S(=O)([N-]S(=O)(=O)C(F)(F)F)C(F)(F)F.[Li+] + CC[n+]1ccn(C)c1.O=S(=O)([O-])C(F)(F)F + O
Conditions	electrical conductivity [S/m]	viscosity [mPa·s]
283 K, 101 kPa, x1 = 0.2649, x2 = 0.2649	0.36	96.6
283 K, 101 kPa, x1 = 0.4189, x2 = 0.2649	0.056	–
283 K, 101 kPa, x1 = 0.5195, x2 = 0.3509	0.014	–
293 K, 101 kPa, x1 = 0.2649, x2 = 0.2649	0.54	60.2
293 K, 101 kPa, x1 = 0.4189, x2 = 0.2649	0.1	410
293 K, 101 kPa, x1 = 0.5195, x2 = 0.3509	0.03	–
293.15 K, 100 kPa, x1 = 0.2745, x2 = 0.3509	–	69.3
293.15 K, 100 kPa, x1 = 0.3106, x2 = 0.3509	–	87
293.15 K, 100 kPa, x1 = 0.3509, x2 = 0.3509	–	129
293.15 K, 100 kPa, x1 = 0.3868, x2 = 0.3509	–	190
293.15 K, 100 kPa, x1 = 0.4189, x2 = 0.3509	–	292
293.15 K, 100 kPa, x1 = 0.4478, x2 = 0.3509	–	428
293.15 K, 100 kPa, x1 = 0.474, x2 = 0.3509	–	611
293.15 K, 100 kPa, x1 = 0.4978, x2 = 0.3509	–	880
293.15 K, 100 kPa, x1 = 0.5195, x2 = 0.3509	–	1587
298.1 K, 101 kPa, x1 = 0.2649, x2 = 0.2649	0.65	48.9
298.1 K, 101 kPa, x1 = 0.4189, x2 = 0.2649	0.14	302
298.1 K, 101 kPa, x1 = 0.5195, x2 = 0.3509	0.042	1125
298.15 K, 100 kPa, x1 = 0.2745, x2 = 0.3509	–	55
298.15 K, 100 kPa, x1 = 0.3106, x2 = 0.3509	–	73.5
298.15 K, 100 kPa, x1 = 0.3509, x2 = 0.3509	–	102
298.15 K, 100 kPa, x1 = 0.3868, x2 = 0.3509	–	147
298.15 K, 100 kPa, x1 = 0.4189, x2 = 0.3509	–	219
298.15 K, 100 kPa, x1 = 0.4478, x2 = 0.3509	–	316
298.15 K, 100 kPa, x1 = 0.474, x2 = 0.3509	–	439
298.15 K, 100 kPa, x1 = 0.4978, x2 = 0.3509	–	618
298.15 K, 100 kPa, x1 = 0.5195, x2 = 0.3509	–	1082
303 K, 101 kPa, x1 = 0.2649, x2 = 0.2649	0.77	40.2
303 K, 101 kPa, x1 = 0.4189, x2 = 0.2649	0.17	227
303 K, 101 kPa, x1 = 0.5195, x2 = 0.3509	0.057	789
303.15 K, 100 kPa, x1 = 0.2745, x2 = 0.3509	–	44.4
303.15 K, 100 kPa, x1 = 0.3106, x2 = 0.3509	–	59.3
303.15 K, 100 kPa, x1 = 0.3509, x2 = 0.3509	–	81.4
303.15 K, 100 kPa, x1 = 0.3868, x2 = 0.3509	–	115
303.15 K, 100 kPa, x1 = 0.4189, x2 = 0.3509	–	166
303.15 K, 100 kPa, x1 = 0.4478, x2 = 0.3509	–	238
303.15 K, 100 kPa, x1 = 0.474, x2 = 0.3509	–	326
303.15 K, 100 kPa, x1 = 0.4978, x2 = 0.3509	–	452
303.15 K, 100 kPa, x1 = 0.5195, x2 = 0.3509	–	770
313 K, 101 kPa, x1 = 0.2649, x2 = 0.2649	1.05	28
313 K, 101 kPa, x1 = 0.4189, x2 = 0.2649	0.27	138
313 K, 101 kPa, x1 = 0.5195, x2 = 0.3509	0.1	418
313.15 K, 100 kPa, x1 = 0.2745, x2 = 0.3509	–	30.6
313.15 K, 100 kPa, x1 = 0.3106, x2 = 0.3509	–	40.1
313.15 K, 100 kPa, x1 = 0.3509, x2 = 0.3509	–	54.2
313.15 K, 100 kPa, x1 = 0.3868, x2 = 0.3509	–	75.3
313.15 K, 100 kPa, x1 = 0.4189, x2 = 0.3509	–	104
313.15 K, 100 kPa, x1 = 0.4478, x2 = 0.3509	–	144
313.15 K, 100 kPa, x1 = 0.474, x2 = 0.3509	–	191
313.15 K, 100 kPa, x1 = 0.4978, x2 = 0.3509	–	255
313.15 K, 100 kPa, x1 = 0.5195, x2 = 0.3509	–	413
323 K, 101 kPa, x1 = 0.2649, x2 = 0.2649	1.38	20.4
323 K, 101 kPa, x1 = 0.4189, x2 = 0.2649	0.4	87.4
323 K, 101 kPa, x1 = 0.5195, x2 = 0.3509	0.16	243
323.15 K, 100 kPa, x1 = 0.2745, x2 = 0.3509	–	22.1
323.15 K, 100 kPa, x1 = 0.3106, x2 = 0.3509	–	28.7
323.15 K, 100 kPa, x1 = 0.3509, x2 = 0.3509	–	37.6
323.15 K, 100 kPa, x1 = 0.3868, x2 = 0.3509	–	49.3
323.15 K, 100 kPa, x1 = 0.4189, x2 = 0.3509	–	63.9
323.15 K, 100 kPa, x1 = 0.4478, x2 = 0.3509	–	92.9
323.15 K, 100 kPa, x1 = 0.474, x2 = 0.3509	–	120
323.15 K, 100 kPa, x1 = 0.4978, x2 = 0.3509	–	155
323.15 K, 100 kPa, x1 = 0.5195, x2 = 0.3509	–	239
333 K, 101 kPa, x1 = 0.2649, x2 = 0.2649	1.76	15.3
333 K, 101 kPa, x1 = 0.4189, x2 = 0.2649	0.56	58
333 K, 101 kPa, x1 = 0.5195, x2 = 0.3509	0.24	149
333.15 K, 100 kPa, x1 = 0.2745, x2 = 0.3509	–	16.5
333.15 K, 100 kPa, x1 = 0.3106, x2 = 0.3509	–	21.2
333.15 K, 100 kPa, x1 = 0.3509, x2 = 0.3509	–	27.2
333.15 K, 100 kPa, x1 = 0.3868, x2 = 0.3509	–	34.1
333.15 K, 100 kPa, x1 = 0.4189, x2 = 0.3509	–	44
333.15 K, 100 kPa, x1 = 0.4478, x2 = 0.3509	–	56.7
333.15 K, 100 kPa, x1 = 0.474, x2 = 0.3509	–	80
333.15 K, 100 kPa, x1 = 0.4978, x2 = 0.3509	–	102
333.15 K, 100 kPa, x1 = 0.5195, x2 = 0.3509	–	150
343.15 K, 100 kPa, x1 = 0.2745, x2 = 0.3509	–	12.7
343.15 K, 100 kPa, x1 = 0.3106, x2 = 0.3509	–	16.1
343.15 K, 100 kPa, x1 = 0.3509, x2 = 0.3509	–	19.6
343.15 K, 100 kPa, x1 = 0.3868, x2 = 0.3509	–	25.1
343.15 K, 100 kPa, x1 = 0.4189, x2 = 0.3509	–	31.6
343.15 K, 100 kPa, x1 = 0.4478, x2 = 0.3509	–	39.9
343.15 K, 100 kPa, x1 = 0.474, x2 = 0.3509	–	51.1
343.15 K, 100 kPa, x1 = 0.4978, x2 = 0.3509	–	64.1
343.15 K, 100 kPa, x1 = 0.5195, x2 = 0.3509	–	91.5
353.15 K, 100 kPa, x1 = 0.2745, x2 = 0.3509	–	10
353.15 K, 100 kPa, x1 = 0.3106, x2 = 0.3509	–	12.6
353.15 K, 100 kPa, x1 = 0.3509, x2 = 0.3509	–	15.1
353.15 K, 100 kPa, x1 = 0.3868, x2 = 0.3509	–	19
353.15 K, 100 kPa, x1 = 0.4189, x2 = 0.3509	–	23.6
353.15 K, 100 kPa, x1 = 0.4478, x2 = 0.3509	–	29.2
353.15 K, 100 kPa, x1 = 0.474, x2 = 0.3509	–	36.7
353.15 K, 100 kPa, x1 = 0.4978, x2 = 0.3509	–	45.9
353.15 K, 100 kPa, x1 = 0.5195, x2 = 0.3509	–	58
363.15 K, 100 kPa, x1 = 0.2745, x2 = 0.3509	–	7.98
363.15 K, 100 kPa, x1 = 0.3106, x2 = 0.3509	–	10
363.15 K, 100 kPa, x1 = 0.3509, x2 = 0.3509	–	11.9
363.15 K, 100 kPa, x1 = 0.3868, x2 = 0.3509	–	14.8
363.15 K, 100 kPa, x1 = 0.4189, x2 = 0.3509	–	18.1
363.15 K, 100 kPa, x1 = 0.4478, x2 = 0.3509	–	22.1
363.15 K, 100 kPa, x1 = 0.474, x2 = 0.3509	–	27.3
363.15 K, 100 kPa, x1 = 0.4978, x2 = 0.3509	–	33.8
363.15 K, 100 kPa, x1 = 0.5195, x2 = 0.3509	–	41.6
